Structures can show the parent of a compound that is named as a salt. Where two headings read alike, the source gives them in different places.

Assay type in all cases: biochemical
In one experiment the target is PI3Kβ (Homo sapiens (Human), UniProt P42338). Kind of experiment: TR-FRET enzymatic assay of PI3K isoforms (PI3Kβ). The settings on record: TR-FRET, 2×Km ATP, 2 μM PIP2, incubated for 30 minutes at 25° C.; read-out: β IC50. The procedure:
(§1) The compounds of formula (I) were characterized for their enzymatic activity against the PI3K isoforms. Certain compounds of the present application, including certain compounds of formula (II) and (III) were also characterized for their enzymatic activity against PI3K isoforms. The activities were measured using a time-resolved fluorescence resonance energy transfer (TR-FRET) assay.
(In TR-FRET formats the signal depends on donor and acceptor labels being close together.)

For a further experiment, the target named is PI3Kδ (Homo sapiens (Human), UniProt O00329). Kind of experiment: TR-FRET enzymatic assay of PI3K isoforms (PI3Kδ). The settings on record: 2×Km ATP, 2 μM PIP2, incubated for 30 minutes at 25° C., read-out: δ IC50. The procedure:
as §1

The target of a further experiment is PI3Kγ (Homo sapiens (Human), UniProt P48736). Description: TR-FRET enzymatic assay of PI3K isoforms (PI3Kγ). Conditions: read-out: γ IC50. The procedure: as §1
Where [1] appears, read: TR-FRET, 2×Km ATP, 2 μM PIP2, PI3Kγ at 2 nM, incubated for 30 minutes at 25° C.

Chain of PI3Kβ (P42338 whole entry, canonical isoform): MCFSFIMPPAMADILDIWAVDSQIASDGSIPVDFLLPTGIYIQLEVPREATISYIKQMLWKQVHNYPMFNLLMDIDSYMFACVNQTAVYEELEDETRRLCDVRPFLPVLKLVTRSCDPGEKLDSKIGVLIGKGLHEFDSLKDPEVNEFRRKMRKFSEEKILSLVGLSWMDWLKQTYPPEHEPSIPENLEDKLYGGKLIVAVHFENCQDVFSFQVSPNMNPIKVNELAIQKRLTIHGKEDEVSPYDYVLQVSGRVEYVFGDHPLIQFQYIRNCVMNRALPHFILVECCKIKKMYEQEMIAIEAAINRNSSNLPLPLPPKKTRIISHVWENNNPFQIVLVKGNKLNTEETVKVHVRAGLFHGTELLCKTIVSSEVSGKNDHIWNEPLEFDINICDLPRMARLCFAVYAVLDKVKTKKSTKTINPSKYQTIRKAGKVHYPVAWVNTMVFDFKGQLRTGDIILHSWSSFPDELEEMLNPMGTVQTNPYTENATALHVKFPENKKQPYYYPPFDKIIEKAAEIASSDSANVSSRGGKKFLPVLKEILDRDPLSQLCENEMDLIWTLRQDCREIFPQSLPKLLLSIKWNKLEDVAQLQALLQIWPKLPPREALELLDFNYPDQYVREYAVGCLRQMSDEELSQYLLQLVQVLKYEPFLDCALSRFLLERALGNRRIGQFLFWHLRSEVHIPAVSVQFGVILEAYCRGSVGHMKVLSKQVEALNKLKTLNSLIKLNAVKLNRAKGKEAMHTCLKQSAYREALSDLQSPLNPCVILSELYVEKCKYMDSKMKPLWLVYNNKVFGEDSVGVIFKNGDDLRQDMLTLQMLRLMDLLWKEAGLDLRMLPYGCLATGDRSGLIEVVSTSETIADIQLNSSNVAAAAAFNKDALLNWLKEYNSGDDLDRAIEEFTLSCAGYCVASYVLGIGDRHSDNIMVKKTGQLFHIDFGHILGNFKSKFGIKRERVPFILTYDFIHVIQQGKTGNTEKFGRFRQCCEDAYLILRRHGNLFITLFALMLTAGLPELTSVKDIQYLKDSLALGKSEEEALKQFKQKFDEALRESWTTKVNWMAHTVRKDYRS
Chain of PI3Kβ (P27986 whole entry partner, canonical isoform): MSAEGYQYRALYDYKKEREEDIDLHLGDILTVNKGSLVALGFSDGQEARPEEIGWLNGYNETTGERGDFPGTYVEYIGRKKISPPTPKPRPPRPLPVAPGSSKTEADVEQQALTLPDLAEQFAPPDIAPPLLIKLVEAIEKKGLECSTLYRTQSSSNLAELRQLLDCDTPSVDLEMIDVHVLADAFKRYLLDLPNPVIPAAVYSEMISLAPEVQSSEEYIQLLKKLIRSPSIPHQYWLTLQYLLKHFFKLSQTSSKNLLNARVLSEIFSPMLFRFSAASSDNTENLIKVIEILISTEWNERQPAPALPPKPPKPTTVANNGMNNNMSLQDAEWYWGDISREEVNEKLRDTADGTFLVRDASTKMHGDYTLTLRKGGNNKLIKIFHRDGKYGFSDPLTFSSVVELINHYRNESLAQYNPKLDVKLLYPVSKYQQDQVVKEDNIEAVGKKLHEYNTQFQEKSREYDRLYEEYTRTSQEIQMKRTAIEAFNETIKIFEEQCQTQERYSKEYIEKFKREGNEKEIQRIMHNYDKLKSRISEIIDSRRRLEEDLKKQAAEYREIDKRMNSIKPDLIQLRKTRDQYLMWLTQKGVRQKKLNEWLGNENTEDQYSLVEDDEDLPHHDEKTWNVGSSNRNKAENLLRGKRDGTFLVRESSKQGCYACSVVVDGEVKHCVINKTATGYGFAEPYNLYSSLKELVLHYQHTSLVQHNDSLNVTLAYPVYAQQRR
Chain of PI3Kδ (O00329 whole entry, canonical isoform): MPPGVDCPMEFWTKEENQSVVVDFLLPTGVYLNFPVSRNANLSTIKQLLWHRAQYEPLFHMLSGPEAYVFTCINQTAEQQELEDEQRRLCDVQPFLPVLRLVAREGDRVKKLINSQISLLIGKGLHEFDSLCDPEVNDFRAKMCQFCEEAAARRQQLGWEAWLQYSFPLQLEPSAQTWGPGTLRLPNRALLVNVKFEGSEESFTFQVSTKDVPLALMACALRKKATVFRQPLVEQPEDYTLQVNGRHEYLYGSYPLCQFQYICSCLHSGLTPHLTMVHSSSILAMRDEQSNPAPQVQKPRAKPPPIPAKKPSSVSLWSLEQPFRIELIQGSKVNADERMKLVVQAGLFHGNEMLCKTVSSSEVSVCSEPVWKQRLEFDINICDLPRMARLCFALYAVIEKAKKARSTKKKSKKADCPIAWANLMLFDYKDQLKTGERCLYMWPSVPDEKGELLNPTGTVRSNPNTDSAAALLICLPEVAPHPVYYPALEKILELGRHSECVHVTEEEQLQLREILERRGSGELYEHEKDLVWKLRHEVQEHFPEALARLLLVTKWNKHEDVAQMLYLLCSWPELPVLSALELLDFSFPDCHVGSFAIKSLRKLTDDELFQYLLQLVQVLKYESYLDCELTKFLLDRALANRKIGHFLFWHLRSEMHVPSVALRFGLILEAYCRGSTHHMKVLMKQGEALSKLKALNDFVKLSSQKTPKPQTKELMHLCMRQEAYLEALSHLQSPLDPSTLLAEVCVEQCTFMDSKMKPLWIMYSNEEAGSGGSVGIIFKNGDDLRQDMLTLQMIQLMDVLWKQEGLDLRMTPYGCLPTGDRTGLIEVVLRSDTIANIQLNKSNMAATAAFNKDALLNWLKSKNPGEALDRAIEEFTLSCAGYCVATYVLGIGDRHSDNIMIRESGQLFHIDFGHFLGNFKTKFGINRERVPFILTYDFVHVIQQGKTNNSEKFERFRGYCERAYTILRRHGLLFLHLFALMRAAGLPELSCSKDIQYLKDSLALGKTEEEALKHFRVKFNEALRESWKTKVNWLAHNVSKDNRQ
Chain of PI3Kδ (P27986 whole entry partner, canonical isoform): as the sequence (P27986 whole entry partner, canonical isoform) above
Chain of PI3Kγ (P48736 whole entry, canonical isoform): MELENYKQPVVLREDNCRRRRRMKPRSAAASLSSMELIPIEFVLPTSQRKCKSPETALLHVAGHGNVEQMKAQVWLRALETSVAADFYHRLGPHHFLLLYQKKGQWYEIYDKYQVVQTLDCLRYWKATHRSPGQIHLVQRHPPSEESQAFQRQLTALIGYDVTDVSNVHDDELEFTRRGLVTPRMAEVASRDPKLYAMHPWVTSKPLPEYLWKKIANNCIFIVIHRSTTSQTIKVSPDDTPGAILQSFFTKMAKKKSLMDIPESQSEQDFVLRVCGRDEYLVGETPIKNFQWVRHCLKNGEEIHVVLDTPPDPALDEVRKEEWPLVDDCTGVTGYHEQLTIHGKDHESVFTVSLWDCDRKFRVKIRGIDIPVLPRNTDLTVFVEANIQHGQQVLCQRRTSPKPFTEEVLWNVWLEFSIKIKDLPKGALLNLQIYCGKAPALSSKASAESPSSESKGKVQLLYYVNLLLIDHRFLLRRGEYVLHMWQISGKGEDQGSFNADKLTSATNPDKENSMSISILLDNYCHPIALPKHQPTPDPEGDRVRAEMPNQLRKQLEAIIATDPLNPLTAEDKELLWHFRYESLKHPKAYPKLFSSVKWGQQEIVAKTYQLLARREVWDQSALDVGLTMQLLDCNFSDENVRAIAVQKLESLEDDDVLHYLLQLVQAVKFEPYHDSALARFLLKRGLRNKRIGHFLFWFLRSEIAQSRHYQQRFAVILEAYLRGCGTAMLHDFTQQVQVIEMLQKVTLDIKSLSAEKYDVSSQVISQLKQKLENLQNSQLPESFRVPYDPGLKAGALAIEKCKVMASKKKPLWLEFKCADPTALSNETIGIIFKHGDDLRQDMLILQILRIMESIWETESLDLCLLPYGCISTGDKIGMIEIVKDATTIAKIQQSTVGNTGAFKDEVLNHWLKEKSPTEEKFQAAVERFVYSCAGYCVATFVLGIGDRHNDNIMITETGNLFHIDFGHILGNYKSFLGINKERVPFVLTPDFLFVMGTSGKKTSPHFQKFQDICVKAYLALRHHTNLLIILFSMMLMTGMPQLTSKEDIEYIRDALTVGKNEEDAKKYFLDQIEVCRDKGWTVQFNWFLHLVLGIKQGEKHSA
Chain of PI3Kγ (Q8WYR1 whole entry partner, canonical isoform): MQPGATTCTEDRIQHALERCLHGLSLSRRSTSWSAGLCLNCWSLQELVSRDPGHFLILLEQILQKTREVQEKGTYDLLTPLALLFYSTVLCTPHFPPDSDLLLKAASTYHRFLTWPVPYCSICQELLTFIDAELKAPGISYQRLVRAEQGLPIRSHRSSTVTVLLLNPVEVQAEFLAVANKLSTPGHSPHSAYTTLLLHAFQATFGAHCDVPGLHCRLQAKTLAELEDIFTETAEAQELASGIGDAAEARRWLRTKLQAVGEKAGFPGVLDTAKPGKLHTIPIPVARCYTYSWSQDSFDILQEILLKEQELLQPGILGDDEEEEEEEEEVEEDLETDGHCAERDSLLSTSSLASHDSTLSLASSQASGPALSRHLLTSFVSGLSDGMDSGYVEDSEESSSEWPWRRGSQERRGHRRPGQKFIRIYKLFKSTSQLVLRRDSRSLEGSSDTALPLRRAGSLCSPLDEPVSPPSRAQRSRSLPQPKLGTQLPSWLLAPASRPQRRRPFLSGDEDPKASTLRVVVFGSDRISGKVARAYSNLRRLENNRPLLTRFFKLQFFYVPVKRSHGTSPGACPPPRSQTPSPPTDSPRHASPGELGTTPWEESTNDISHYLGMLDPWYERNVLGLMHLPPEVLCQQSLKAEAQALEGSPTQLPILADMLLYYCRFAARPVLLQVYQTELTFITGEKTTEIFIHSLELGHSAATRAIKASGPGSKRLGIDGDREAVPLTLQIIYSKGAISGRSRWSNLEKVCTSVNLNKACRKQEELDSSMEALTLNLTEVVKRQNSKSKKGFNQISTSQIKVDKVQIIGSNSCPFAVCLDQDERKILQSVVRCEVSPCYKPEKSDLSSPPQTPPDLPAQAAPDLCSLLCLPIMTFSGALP

For orientation: IC50 means the midpoint of a concentration-inhibition curve. For `C[C@H](Nc1ncnc(N)c1C#N)c1nc2cccc(F)c2c(=O)n1-c1cccc(NC(=O)Nc2ccccc2C(F)(F)F)c1` [Compound 110, (S)-1-(3-(2-(1-((6-amino-5-cyanopyrimidin-4-yl)amino)ethyl)-5-fluoro-4-oxoquinazolin-3(4H)-yl)phenyl)-3-(2-(trifluoromethyl)phenyl)urea], the figures for the IC50 on PI3Kβ, at PI3Kδ and at PI3Kγ (setting [1]) were 16 nM, 57 nM and over 10000 nM, respectively.

As for `C[C@H](Nc1ncnc(N)c1C#N)c1nc2cccc(Cl)c2c(=O)n1-c1cccc(NC(=O)Nc2ccncc2Cl)c1` [Compound 111, (S)-1-(3-(2-(1-((6-amino-5-cyanopyrimidin-4-yl)amino)ethyl)-5-chloro-4-oxoquinazolin-3(4H)-yl)phenyl)-3-(3-chloropyridin-4-yl)urea, trifluoroacetic acid salt], the results for the half-maximal inhibitory concentration (IC50) at PI3Kβ, on PI3Kδ and at PI3Kγ (setting [1]) were 4 nM, 7 nM and 4300 nM, respectively.

As to `C[C@H](Nc1ncnc2[nH]cnc12)c1nc2cccc(Cl)c2c(=O)n1-c1cccc(NC(=O)Nc2ccncc2Cl)c1` [Compound 112, (S)-1-(3-(2-(1-((9H-purin-6-yl)amino)ethyl)-5-chloro-4-oxoquinazolin-3(4H)-yl)phenyl)-3-(3-chloropyridin-4-yl)urea], the figures for the IC50 at PI3Kβ, on PI3Kδ and on PI3Kγ (setting [1]) were 6 nM, 26 nM and 1600 nM, respectively.

On to `C[C@H](Nc1ncnc(N)c1C#N)c1nc2cccc(Cl)c2c(=O)n1-c1cccc(NC(=O)Nc2nnn[nH]2)c1` [Compound 114, (S)-1-(3-(2-(1-((6-amino-5-cyanopyrimidin-4-yl)amino)ethyl)-5-chloro-4-oxoquinazolin-3(4H)-yl)phenyl)-3-(1H-tetrazol-5-yl)urea], for which the IC50 at PI3Kβ was 37 nM; at PI3Kδ, 10 nM; at PI3Kγ (setting [1]), 3800 nM.

With `CONC(=O)Nc1cccc(-n2c([C@H](C)Nc3ncnc(N)c3C#N)nc3cccc(Cl)c3c2=O)c1` [Compound 115, (S)-1-(3-(2-(1-((6-amino-5-cyanopyrimidin-4-yl)amino)ethyl)-5-chloro-4-oxoquinazolin-3(4H)-yl)phenyl)-3-methoxyurea], the IC50 at PI3Kβ turned out to be 14 nM; at PI3Kδ it was 5 nM; on PI3Kγ (setting [1]), 3700 nM.

Regarding `C[C@H](Nc1ncnc(N)c1C#N)c1nc2cccc(Cl)c2c(=O)n1-c1cccc(NC(=O)NCCN(C)C)c1` [Compound 116, (S)-1-(3-(2-(1-((6-amino-5-cyanopyrimidin-4-yl)amino)ethyl)-5-chloro-4-oxoquinazolin-3(4H)-yl)phenyl)-3-(2-(dimethylamino)ethyl)urea, trifluoroacetic acid salt], the IC50 on PI3Kβ was 2 nM; on PI3Kδ, 4 nM; at PI3Kγ (setting [1]), over 10000 nM.

On to `C[C@H](Nc1ncnc(N)c1C#N)c1nc2cccc(Cl)c2c(=O)n1-c1cccc(NC(=O)NCCO)c1` [Compound 117, (S)-1-(3-(2-(1-((6-amino-5-cyanopyrimidin-4-yl)amino)ethyl)-5-chloro-4-oxoquinazolin-3(4H)-yl)phenyl)-3-(2-hydroxyethyl)urea], for which the IC50 was found to be 4 nM at PI3Kβ, 6 nM on PI3Kδ and 8300 nM on PI3Kγ (setting [1]).

Take `C[C@H](Nc1ncnc(N)c1C#N)c1nc2cccc(Cl)c2c(=O)n1-c1cccc(NC(=O)Nc2ccccc2)c1` [Compound 118, (S)-1-(3-(2-(1-((6-amino-5-cyanopyrimidin-4-yl)amino)ethyl)-5-chloro-4-oxoquinazolin-3(4H)-yl)phenyl)-3-phenylurea]: the results for the IC50 at PI3Kβ, at PI3Kδ and on PI3Kγ (setting [1]) were 3 nM, 8 nM and 1000 nM, respectively.

As to `C[C@H](Nc1ncnc(N)c1C#N)c1nc2cccc(Cl)c2c(=O)n1-c1cccc(NC(=O)Nc2cccnc2)c1` [Compound 119, (S)-1-(3-(2-(1-((6-amino-5-cyanopyrimidin-4-yl)amino)ethyl)-5-chloro-4-oxoquinazolin-3(4H)-yl)phenyl)-3-(pyridin-3-yl)urea, trifluoroacetic acid salt], the IC50 on PI3Kβ was 3 nM; at PI3Kδ, 5 nM; at PI3Kγ (setting [1]) it was 1400 nM.

`CC(C)NC(=O)Nc1cccc(-n2c([C@H](C)Nc3ncnc(N)c3C#N)nc3cccc(Cl)c3c2=O)c1` [Compound 120, (S)-1-(3-(2-(1-((6-amino-5-cyanopyrimidin-4-yl)amino)ethyl)-5-chloro-4-oxoquinazolin-3(4H)-yl)phenyl)-3-isopropylurea]: the IC50 at PI3Kβ was found to be 9 nM; on PI3Kδ it was 7 nM; on PI3Kγ (setting [1]), 4800 nM.

With `C[C@H](Nc1ncnc(N)c1C#N)c1nc2cccc(Cl)c2c(=O)n1-c1cccc(NC(=O)NC2CCCC2)c1` [Compound 121, (S)-1-(3-(2-(1-((6-amino-5-cyanopyrimidin-4-yl)amino)ethyl)-5-chloro-4-oxoquinazolin-3(4H)-yl)phenyl)-3-cyclopentylurea], the IC50 at PI3Kβ was determined as 3 nM; at PI3Kδ it was 3 nM; at PI3Kγ (setting [1]), 1600 nM.

`C[C@H](Nc1ncnc(N)c1C#N)c1nc2cccc(Cl)c2c(=O)n1-c1cccc(NC(=O)NC2CCCCC2)c1` [Compound 122, (S)-1-(3-(2-(1-((6-amino-5-cyanopyrimidin-4-yl)amino)ethyl)-5-chloro-4-oxoquinazolin-3(4H)-yl)phenyl)-3-cyclohexylurea]: the IC50 on PI3Kβ amounted to 3 nM; on PI3Kδ, 4 nM; on PI3Kγ (setting [1]), 2000 nM.

As for `C[C@H](Nc1ncnc(N)c1C#N)c1nc2cccc(Cl)c2c(=O)n1-c1cccc(NC(=O)NC2CCC2)c1` [Compound 123, (S)-1-(3-(2-(1-((6-amino-5-cyanopyrimidin-4-yl)amino)ethyl)-5-chloro-4-oxoquinazolin-3(4H)-yl)phenyl)-3-cyclobutylurea], the results for the IC50 at PI3Kβ, on PI3Kδ and on PI3Kγ (setting [1]) were 7 nM, 3 nM and 2200 nM, respectively.

With `C[C@H](Nc1ncnc(N)c1C#N)c1nc2cccc(Cl)c2c(=O)n1-c1cccc(NC(=O)NC(C)(C)C)c1` [Compound 124, (S)-1-(3-(2-(1-((6-amino-5-cyanopyrimidin-4-yl)amino)ethyl)-5-chloro-4-oxoquinazolin-3(4H)-yl)phenyl)-3-(tert-butyl)urea], the IC50 at PI3Kβ came out at 14 nM; at PI3Kδ, 9 nM; at PI3Kγ (setting [1]) it was 3300 nM.

Turning to `C[C@H](Nc1ncnc(N)c1C#N)c1nc2cccc(Cl)c2c(=O)n1-c1cccc(NC(=O)NC2CC2)c1` [Compound 125, (S)-1-(3-(2-(1-((6-amino-5-cyanopyrimidin-4-yl)amino)ethyl)-5-chloro-4-oxoquinazolin-3(4H)-yl)phenyl)-3-cyclopropylurea], the IC50 was found to be 7 nM at PI3Kβ, 7 nM at PI3Kδ and 3400 nM on PI3Kγ (setting [1]).

Take `CCCNC(=O)Nc1cccc(-n2c([C@H](C)Nc3ncnc(N)c3C#N)nc3cccc(Cl)c3c2=O)c1` [Compound 126, (S)-1-(3-(2-(1-((6-amino-5-cyanopyrimidin-4-yl)amino)ethyl)-5-chloro-4-oxoquinazolin-3(4H)-yl)phenyl)-3-propylurea]: the values for the IC50 on PI3Kβ, on PI3Kδ and at PI3Kγ (setting [1]) were 8 nM, 4 nM and 2900 nM, respectively.

In the case of `C[C@H](Nc1ncnc(N)c1C#N)c1nc2cccc(Cl)c2c(=O)n1-c1cccc(NC(=O)NCCF)c1` [Compound 127, (S)-1-(3-(2-(1-((6-amino-5-cyanopyrimidin-4-yl)amino)ethyl)-5-chloro-4-oxoquinazolin-3(4H)-yl)phenyl)-3-(2-fluoroethyl)urea], the IC50 on PI3Kβ was 8 nM; at PI3Kδ it was 5 nM; at PI3Kγ (setting [1]), 5800 nM.

On to `C[C@H](Nc1ncnc(N)c1C#N)c1nc2cccc(Cl)c2c(=O)n1-c1cccc(NC(=O)NCCCO)c1` [Compound 128, (S)-1-(3-(2-(1-((6-amino-5-cyanopyrimidin-4-yl)amino)ethyl)-5-chloro-4-oxoquinazolin-3(4H)-yl)phenyl)-3-(3-hydroxypropyl)urea], for which the IC50 at PI3Kβ was 9 nM; at PI3Kδ, 4 nM; at PI3Kγ (setting [1]) it was 5600 nM.

Consider `CC(O)CNC(=O)Nc1cccc(-n2c([C@H](C)Nc3ncnc(N)c3C#N)nc3cccc(Cl)c3c2=O)c1` (stereo partly drawn) [Compound 129, 1-(3-(2-((S)-1-((6-amino-5-cyanopyrimidin-4-yl)amino)ethyl)-5-chloro-4-oxoquinazolin-3(4H)-yl)phenyl)-3-(2-hydroxypropyl)urea], for which the IC50 at PI3Kβ was 9 nM; at PI3Kδ, 4 nM; on PI3Kγ (setting [1]), 5600 nM.

As to `O=C(NCCCO)Nc1cccc(-n2c([C@H](COCc3ccccc3)Nc3ncnc4[nH]cnc34)nc3cccc(Cl)c3c2=O)c1` [Compound 131, (R)-1-(3-(2-(1-((9H-purin-6-yl)amino)-2-(benzyloxy)ethyl)-5-chloro-4-oxoquinazolin-3(4H)-yl)phenyl)-3-(3-hydroxypropyl)urea], the results for the IC50 at PI3Kβ, on PI3Kδ and on PI3Kγ were 43 nM, 41 nM and over 10000 nM, respectively.

With `CCNC(=O)Nc1cccc(-n2c([C@H](COCc3ccccc3)Nc3ncnc(N)c3C#N)nc3cccc(Cl)c3c2=O)c1` [Compound 132, (R)-1-(3-(2-(1-((6-amino-5-cyanopyrimidin-4-yl)amino)-2-(benzyloxy)ethyl)-5-chloro-4-oxoquinazolin-3(4H)-yl)phenyl)-3-ethylurea], the IC50 stood at 21 nM on PI3Kβ, 10 nM on PI3Kδ and 8700 nM at PI3Kγ (setting [1]).

Take `COCCCNC(=O)Nc1cccc(-n2c([C@H](C)Nc3ncnc(N)c3C#N)nc3cccc(Cl)c3c2=O)c1` [Compound 134, (S)-1-(3-(2-(1-((6-amino-5-cyanopyrimidin-4-yl)amino)ethyl)-5-chloro-4-oxoquinazolin-3(4H)-yl)phenyl)-3-(3-methoxypropyl)urea]: the IC50 on PI3Kβ amounted to 5 nM; on PI3Kδ it was 10 nM; on PI3Kγ (setting [1]), 6000 nM.

Values taken from US10221197B2, “Phosphatidylinositol 3-kinase inhibitors” (Gilead Sciences, Inc., priority 2014, dated 2019).
